Paper PMC4209782 (Biochemical Journal, 2014)

Experiments:
[1] = test system: 4EBP1 phosphorylation (Thr37, Thr46 and Ser65); experiment: 4E-BP1 phosphorylation (mTORC1 sites), immunoblot of treated U2OS cells; assay type: cell-based; conditions: AZD8055 0.1 μM
Protocol: (§1) U20S cell line was kindly provided by John Rouse (MRC Protein Phosphorylation and Ubiquitylation Unit, University of Dundee, Dundee, U.K.). Cells were cultured in DMEM (Dulbecco's modified Eagle's medium) supplemented with 10% (v/v) FBS, 2 mM L-glutamine, 100 U/ml penicillin and 0.1 mg/ml streptomycin. cDNA for mouse Hrs (residues 147–223 ×2 joined by a linker) were cloned into a pBABE.puro vector. […] . The virus was harvested 48 h after transfection and applied to U20S cells in the presence of 10 μg/ml polybrene. Cells were selected with 10 μg/ml puromycin before single cell colony selection to identify low expression GFP–FYVEHrs clones. U2OS Flp/In cell line was kindly provided by John Rouse. Cells were cultured in McCoy medium supplemented with 10% (v/v) FBS, 2 mM L-glutamine, 100 U/ml penicillin and 0.1 mg/ml streptomycin. Stable cell lines expressing doxycycline-inducible proteins were generated using the Flp-In™ T-REx™ system (Invitrogen). Stable transfected clones were selected using 0.01 mM hygromycin in cell medium. Protein expression was induced by adding 0.01 mg/ml doxycycline in the medium for 24 h prior to cell lysis. Inhibitor treatment was carried out as described in the Figure legends. The cells were lysed in buffer containing 50 mM Tris/HCl (pH 7.5), 150 mM NaCl, 1 mM EDTA, 1 mM EGTA, 1 mM sodium orthovanadate, 10 mM sodium glycerophosphate, 50 mM sodium fluoride, 10 mM sodium pyrophosphate, 0.27 M sucrose, 0.1% 2-mercaptoethanol, 1 mM benzamidine and 0.1 mM PMSF. Lysates were clarified by centrifugation at 16000 g for 10 min at 4°C. Protein concentration was calculated using Bradford assay (Thermo Scientific). Immunoblotting and immunoprecipitation were performed using standard procedures. The signal was developed using the ECL Western Blotting Detection kit (GE Healthcare) on Hyperfilm ECL film (GE Healthcare). […]

SGK3 = SGK3 kinase activity after immunoprecipitation from inhibitor-treated U2OS cells (Crosstide assay); assay type: cell-based
[2] = test system: Akt (Thr308, Ser473) and Akt substrate PRAS40 (Thr246) phosphorylation; experiment: Akt and PRAS40 phosphorylation, immunoblot of treated U2OS cells; assay type: cell-based; conditions: 1 h
Protocol: U20S cell line was kindly provided by John Rouse (MRC Protein Phosphorylation and Ubiquitylation Unit, University of Dundee, Dundee, U.K.). Cells were cultured in DMEM (Dulbecco's modified Eagle's medium) supplemented with 10% (v/v) FBS, 2 mM L-glutamine, 100 U/ml penicillin and 0.1 mg/ml streptomycin. cDNA for mouse Hrs (residues 147–223 ×2 joined by a linker) were cloned into a pBABE.puro vector. […] . The virus was harvested 48 h after transfection and applied to U20S cells in the presence of 10 μg/ml polybrene. Cells were selected with 10 μg/ml puromycin before single cell colony selection to identify low expression GFP–FYVEHrs clones. U2OS Flp/In cell line was kindly provided by John Rouse. Cells were cultured in McCoy medium supplemented with 10% (v/v) FBS, 2 mM L-glutamine, 100 U/ml penicillin and 0.1 mg/ml streptomycin. Stable cell lines expressing doxycycline-inducible proteins were generated using the Flp-In™ T-REx™ system (Invitrogen). Stable transfected clones were selected using 0.01 mM hygromycin in cell medium. Protein expression was induced by adding 0.01 mg/ml doxycycline in the medium for 24 h prior to cell lysis. Inhibitor treatment was carried out as described in the Figure legends. The cells were lysed in buffer containing 50 mM Tris/HCl (pH 7.5), 150 mM NaCl, 1 mM EDTA, 1 mM EGTA, 1 mM sodium orthovanadate, 10 mM sodium glycerophosphate, 50 mM sodium fluoride, 10 mM sodium pyrophosphate, 0.27 M sucrose, 0.1% 2-mercaptoethanol, 1 mM benzamidine and 0.1 mM PMSF. Lysates were clarified by centrifugation at 16000 g for 10 min at 4°C. Protein concentration was calculated using Bradford assay (Thermo Scientific). Immunoblotting and immunoprecipitation were performed using standard procedures. The signal was developed using the ECL Western Blotting Detection kit (GE Healthcare) on Hyperfilm ECL film (GE Healthcare).
The following antibodies were raised in sheep, by the DSTT (Division of Signal Transduction Therapy) at the University of Dundee, and affinity-purified against the indicated antigens: anti-Akt1 (S695B, third bleed; raised against residues 466–480 of human Akt1: […]), anti-PRAS40 (proline-rich Akt substrate 40 kDa) (S115B, first bleed; raised against residues 238–256 of human PRAS40: […]), anti-(phospho-PRAS40 Thr^246) (S114B, second bleed; raised against residues 240–251 of human PRAS40: CRPRLNTpSDFQK), anti-NDRG1 (N-Myc downstream-regulated gene-1) (S276B third bleed; raised against full-length human NDRG1) and anti-SGK3 [S037D second bleed; raised against human SGK3 PX domain comprising residues 1–130 of SGK3]. […] Anti-(phospho-SGK hydrophobic motif [Ser^486 in SGK3]) antibody (sc16745) was from Santa Cruz Biotechnology and total SGK1/2 antibody was from Sigma (5188) as was the mouse anti-FLAG antibody. Secondary antibodies coupled to HRP (horseradish peroxidase) were obtained from Thermo Scientific.
. […] (B and C) As in (A) except cells were treated with the indicated doses of the BKM120 class I PI3K inhibitor.

Vps34 = conditions: cited from earlier work
[3] = test system: NDRG1 phosphorylation at Thr346; experiment: NDRG1 Thr346 phosphorylation, immunoblot of treated U2OS cells; assay type: cell-based; conditions: 1 h
Protocol: as §1, with “The cells were lysed in buffer containing 50 mM Tris/HCl (pH 7.5), 150 mM NaCl, 1 mM EDTA, 1 mM EGTA, 1 mM sodium orthovanadate, 10 mM sodium glycerophosphate, 50 mM sodium fluoride, 10 mM sodium pyrophosphate, 0.27 M sucrose, 0.1% 2-mercaptoethanol, 1 mM benzamidine and 0.1 mM PMSF. Lysates were clarified by centrifugation at 16000 g for 10 min at 4°C.” left out, “Scientific).” for “Scientific). Immunoblotting and immunoprecipitation were performed using standard procedures. The signal was developed using the ECL Western Blotting Detection kit (GE Healthcare) on Hyperfilm ECL film (GE Healthcare).”

[4] = test system: PtdIns(3,4,5)P3/PtdIns(3,4)P2 (GFP–PHAkt1 probe) in U2OS cells; experiment: IGF1-induced plasma membrane recruitment of GFP–PHAkt1 in U2OS cells; conditions: 1 μM VPS34-IN1 or 0.5 μM GDC-0941 for 1 h, IGF 100 ng/ml 15 min
Protocol: (§2) Cells were cultured on glass coverslips and processed for immunocytochemistry using standard protocols. […] For experiments quantifying co-localization of SGK3–GFP with EEA1 (early endosome antigen 1) and localization GFP–FYVEHrs in response to inhibitor treatment, cells were permeabilized via one freeze–thaw cycle in liquid nitrogen and subsequently fixed. The following primary antibodies were used: rabbit anti-EEA1 (1:500 dilution; Life Technologies) and mouse anti-GFP (1:1000 dilution; Life Technologies) antibodies. […] Imaging was conducted using a Nikon Eclipse Ti-S microscope (×40 objective) or a Zeiss LSM710 laser scanning confocal microscope [×63 Plan-Apochromat oil immersion objective; 1.40 NA (numerical aperture)] as described in the Figure legends. Time-lapse microscopy was carried out on the same microscope using a heated incubator, heated stage plate and CO2 controller (Pecon) to maintain the cells.
(§3) Time-lapse microscopy was performed on Zeiss 710 microscope using ×63 objective. […] The cells were fixed with 4% paraformaldehyde and images were taken using Zeiss 710 microscope at ×63 objective.

[5] = test system: SGK3 localization on endosomes in U2OS cells; experiment: SGK3–GFP endosomal localization, time-lapse microscopy in U2OS cells
Protocol: as §2
Images were acquired every 0.5 min up to 60 min. […] Post-acquisition, image analysis was conducted with Volocity 6.3 (PerkinElmer).
Images were taken using a Nicon Eclipse Ti-S microscope with ×40 objective (upper panel). […] Pictures were taken with Zeiss 710 microscope using ×100 objective. Mander's correlation coefficient in 112 cells was calculated using the Volocity 6.3 program. […] Time-lapse microscopy was performed on Zeiss 710 microscope using ×63 objective. Representative images are shown and similar results were obtained in two experiments.

[6] = test system: endosomal PtdIns(3)P (GFP–2×FYVEHrs probe) in U2OS cells; experiment: GFP–2×FYVEHrs probe localization, live imaging (time-lapse) in U2OS cells
Protocol: as §2
Images were acquired every 0.5 min up to 60 min. Inhibitors were added after acquiring two images, except for VPS34-IN1 that was added after the first image taken. Post-acquisition, image analysis was conducted with Volocity 6.3 (PerkinElmer).
as §3

[7] = test system: SGK3 phosphorylation (Thr320, Ser486); experiment: SGK3 T-loop and hydrophobic motif phosphorylation, immunoblot of treated U2OS cells; assay type: cell-based; conditions: for SGK3 T-loop and hydrophobic motif phosphorylation: 1 h, U2OS, immunoblot
Protocol: as §1

[8] = test system: ProQinase panel of 300 protein kinases; experiment: ProQinase protein kinase profiling panel; assay type: biochemical; conditions: 1 μM, 300 kinases
Text: Supplementary Figure Legends
technology. The assay conditions are described at
activity in DMSO control.

[9] = test system: panel of 19 lipid kinases (includes class I PI3Ks); experiment: Dundee lipid kinase profiling panel; assay type: biochemical; conditions: 1 μM
[10] = test system: endosomal PtdIns(3)P (GFP–2×FYVEHrs probe) in U2OS cells; experiment: GFP–2×FYVEHrs probe localization on endosomes, fixed U2OS cells; assay type: cell-based; conditions: for loss of endosomal localization of GFP–2×FYVEHrs: 1 h
Protocol: U20S cell line was kindly provided by John Rouse (MRC Protein Phosphorylation and Ubiquitylation Unit, University of Dundee, Dundee, U.K.). […] The virus was harvested 48 h after transfection and applied to U20S cells in the presence of 10 μg/ml polybrene. Cells were selected with 10 μg/ml puromycin before single cell colony selection to identify low expression GFP–FYVEHrs clones. U2OS Flp/In cell line was kindly provided by John Rouse. Cells were cultured in McCoy medium supplemented with 10% (v/v) FBS, 2 mM L-glutamine, 100 U/ml penicillin and 0.1 mg/ml streptomycin. Stable cell lines expressing doxycycline-inducible proteins were generated using the Flp-In™ T-REx™ system (Invitrogen). Stable transfected clones were selected using 0.01 mM hygromycin in cell medium. Protein expression was induced by adding 0.01 mg/ml doxycycline in the medium for 24 h prior to cell lysis. Inhibitor treatment was carried out as described in the Figure legends. The cells were lysed in buffer containing 50 mM Tris/HCl (pH 7.5), 150 mM NaCl, 1 mM EDTA, 1 mM EGTA, 1 mM sodium orthovanadate, 10 mM sodium glycerophosphate, 50 mM sodium fluoride, 10 mM sodium pyrophosphate, 0.27 M sucrose, 0.1% 2-mercaptoethanol, 1 mM benzamidine and 0.1 mM PMSF. Lysates were clarified by centrifugation at 16000 g for 10 min at 4°C. Protein concentration was calculated using Bradford assay (Thermo Scientific). Immunoblotting and immunoprecipitation were performed using standard procedures. The signal was developed using the ECL Western Blotting Detection kit (GE Healthcare) on Hyperfilm ECL film (GE Healthcare).
Cells were cultured on glass coverslips and processed for immunocytochemistry using standard protocols. […] For experiments quantifying co-localization of SGK3–GFP with EEA1 (early endosome antigen 1) and localization GFP–FYVEHrs in response to inhibitor treatment, cells were permeabilized via one freeze–thaw cycle in liquid nitrogen and subsequently fixed. […]
The average cell fluorescence was calculated by dividing total fluorescence of each field by the number of the cells in the field. […]

[11] = test system: Dundee panel of 140 protein kinases; experiment: Dundee protein kinase profiling panel; conditions: 1 μM, 140 kinases
Protocol: (C) Protein kinase profiling of the VPS34-IN1 at a single concentration of 1 μM carried out against the Dundee panel of 140 protein kinases at the International Centre for Protein Kinase Profiling. […] Abbreviations and assay conditions used for each kinase are defined at http://www.kinase-screen.mrc.ac.uk.

SGK2 = SGK2 kinase activity after immunoprecipitation from inhibitor-treated U2OS cells; conditions: 1 h, U2OS expressing SGK2
Protocol: In vitro kinase activity of SGK3 and SGK2 was assayed by measuring [γ-^32P]ATP incorporation into Crosstide substrate peptide [[sequence]]. SGK3 with a C-terminal FLAG-tag was immunoprecipitated from doxycycline-induced U2OS Flp/In cell lines. Immunoprecipitates were washed in sequence with lysis buffer containing high salt concentration (500 mM NaCl), lysis buffer and buffer A (50 mM Tris/HCl, pH 7.5, and 0.1 mM EGTA). Reactions were carried in 40 μl of total volume containing 0.1 mM [γ-^32P]ATP (400–1000 c.p.m./pmol), 10 mM magnesium acetate and 30 μM Crosstide peptide. Reactions were terminated by adding 10 μl of 0.1 mM EDTA and spotting 40 μl of the reaction mixture on P81 paper which were immediately immersed into 50 mM orthophosphoric acid. Papers were washed several times in 50 mM orthophosphoric acid, rinsed in acetone and air dried. Radioactivity was quantified by Cerenkov counting. One unit of enzyme activity was defined as the amount of enzyme that catalyses incorporation of 1 nmol of [γ-^32P]ATP into the substrate over 1 min.
The cells were lysed and SGK3 immunoprecipitated with anti-FLAG antibody. […]

With `COc1ccc(-c2ccc3c(N4CCOC[C@@H]4C)nc(N4CCOC[C@@H]4C)nc3n2)cc1CO` [AZD8055] the “phosphorylation of 4EBP1 at sites phosphorylated by mTORC1” value (“phosphorylation of 4EBP1” for short) [1] was “marked dephosphorylation”.
In the case of `Nc1cc(C(F)(F)F)c(-c2cc(N3CCOCC3)nc(N3CCOCC3)n2)cn1` [BKM120], the inhibition at 0.5 µM (SGK3; Homo sapiens, U2OS, 1 h, read-out: inhibition of SGK3 activity by class I PI3K inhibitor) is reported as ~40%, the “Akt phosphorylation at Ser473 and Thr308” value [2] is reported as “near basal levels” and the “phosphorylation of Akt substrate PRAS40 (Thr246)” value (“phosphorylation … (Thr246)” for short) [2] is reported as “near basal levels”. The “phosphorylation of 4EBP1” value [1] was “lack of effect” and the “inhibition of Vps34” value (Vps34) was “do not inhibit”.
For `CS(=O)(=O)N1CCN(Cc2cc3nc(-c4cccc5[nH]ncc45)nc(N4CCOCC4)c3s2)CC1` [GDC-0941, 2-(1H-indazol-4-yl)-6-(4-methanesulfonyl-piperazin-1-ylmethyl)-4-morpholin-4-yl-t hieno[3,2-d]pyrimidine, reference compound], the “effect on SGK3 activity and phosphorylation at 1 min” value (SGK3; 0.5 μM GDC-0941, 1 min time point) was “little effect”, the “time to near maximal inhibition of SGK3 activity” value (SGK3; 0.5 μM GDC-0941, time course) was 2 min and the “Akt phosphorylation at Ser473 and Thr308” value [2] was “near basal levels”. For the same compound, the “phosphorylation … (Thr246)” value [2] was “near basal levels”, the “NDRG1 phosphorylation at Thr346” value [3] was “significantly suppressed” and the “phosphorylation of 4EBP1” value [1] was “lack of effect”. For the same compound, the “inhibition of Vps34” value (Vps34) was “do not inhibit”, the “effect on IGF1-induced plasma membrane recruitment of GFP–PHAkt1” value [4] was “blocked” and the “effect on SGK3 localization on endosomes” value ([5]; 0.5 μM GDC-0941 alone or with 1 μM VPS34-IN1, time-lapse) was “did not change significantly”. The “effect on endosomal localization of GFP–2×FYVEHrs” value ([6]; 0.5 μM GDC-0941 alone or with 1 μM VPS34-IN1, up to 60 min, live imaging) was “had no effect”.
For `CNc1nc(-c2ccc3c(N)n[nH]c3c2)cc(N2C[C@@H](C(=O)NC3CCCCC3)CC[C@H]2C)n1` [GSK2334470, reference compound], the “SGK3 activity after PDK1 inhibitor” value (SGK3; 1 μM, 1 h, U2OS) was “near basal levels” and the “SGK3 T-loop and hydrophobic motif phosphorylation” value [7] was “near basal levels”.
With `CC(C)(O)CNc1ncc(-c2ccnc(Nc3ccnc(Cl)c3)n2)c(CC2CC2)n1` [VPS34-IN1, 1-[{2-[(2-chloropyridin-4yl)amino]-4′-(cyclopropylmethyl)-[4,5′-bipyrimidin]-2′-yl}amino]-2-methyl-propan-2-ol] the “inhibition of protein kinases, ProQinase panel” value [8] was “did not significantly inhibit”, the “inhibition of lipid kinases, Dundee panel” value [9] was “did not significantly inhibit” and the “effect on GFP–2×FYVEHrs localization” value ([10]; 0.01 μM) was “weak effect”. The “loss of endosomal localization of GFP–2×FYVEHrs” value ([10]; 0.1 μM) was ~ 50%, the “loss of endosomal localization of GFP–2×FYVEHrs” value ([10]; 1.0 μM) was ~ 80% and the “reduction in SGK3 activity” value (SGK3; 0.1 μM VPS34-IN1, 1 h, U2OS) was ~ 40%. The “reduction in SGK3 activity” value (SGK3; 1 μM VPS34-IN1, 1 h, U2OS) was ~ 60%, the “time to 50% reduction of SGK3 activity” value (SGK3; 1 μM VPS34-IN1, time course) was ≤ 15 s and the “time to maximal suppression of SGK3 activity” value (SGK3; 1 μM VPS34-IN1, time course) was ≤ 1 min. The “decrease in SGK3 activity on VPS34-IN1 treatment” value (SGK3; U2OS, concentration not given) was 50–60%, the “time to nearly maximal reduction in SGK3 activity and phosphorylation” value (SGK3; VPS34-IN1, as stated in Discussion) was ≤ 30 s and the “SGK3 T-loop and hydrophobic motif phosphorylation” value [7] was “commensurate decrease”. The “loss of SGK3 phosphorylation” value ([7]; within 1 min) was 50–60%, the “Akt phosphorylation at Ser473 and Thr308” value [2] was “had no effect” and the “phosphorylation … (Thr246)” value [2] was “had no effect”. The “NDRG1 phosphorylation at Thr346” value [3] was “only affected moderately”, the “inhibition of protein kinases, Dundee panel” value [11] was “did not significantly inhibit” and the “effect on IGF1-induced plasma membrane recruitment of GFP–PHAkt1” value [4] was “had no impact”. The “time to dispersal of SGK3 from the endosomes” value ([5]; 1 μM, time-lapse, U2OS) was ≤ 1 min, the “time until dispersal of endosome-localized GFP–SGK3 is essentially complete” value ([5]; live cell imaging, U2OS) was 60 to 120 s and the “time to near maximal dispersal of endosomal GFP–2×FYVEHrs” value ([6]; 1 μM, live imaging, U2OS) was ≤ 2 min. For the same compound, the “time to significant dispersal of endosomal GFP–2×FYVEHrs” value ([6]; 1 μM, live imaging, U2OS) was ≤ 1 min, the “time until dispersal of endosome-localized GFP–2×FYVEHrs is essentially complete” value ([6]; live cell imaging, U2OS) was 60 to 120 s and the “inhibition of SGK2 activity” value (SGK2) was “did not inhibit”.
